Measurements: ChEMBL document CHEMBL1130525, “Robustaflavone, a naturally occurring biflavanoid, is a potent non-nucleoside inhibitor of hepatitis B virus replication in vitro” (Bioorg Med Chem Lett, 1997)

Legend:
HepG2 [1] = assay: Effective concentration necessary to decrease extracellular Hepatitis B virus DNA levels by 50% in human hepatoblastoma cell line (2.2.15 cells) in vitro; format: functional, cell-based
HepG2 [2] = assay: Cytotoxicity towards human hepatoblastoma cell line (2.2.15 cells) measured by inhibition of neutral red dye uptake in vitro; format: functional, cell-based
HepG2 [3] = assay: Effective concentration necessary to decrease extracellular Hepatitis B virus DNA levels by 90% in human hepatoblastoma cell line (2.2.15 cells) in vitro; format: functional
[4] = In vitro selectivity index measured for IC50 to that of EC90 was determined in human hepatoblastoma cell line (2.2.15 cells); format: functional
HepG2 [5] = assay: Relative level of HBV viral antigen (HBsAg) following treatment of human hepatoblastoma cell line (2.2.15 cells) with the compound; format: functional
HepG2 [6] = assay: Relative level of HBV viral antigen (HBeAg) following treatment of human hepatoblastoma cell line (2.2.15 cells) with the compound; format: functional
HepG2 [7] = assay: Relative level of HBV viral DNA (Extracellular) following treatment of human hepatoblastoma cell line (2.2.15 cells) with the compound; format: functional
HepG2 [8] = assay: Relative level of HBV viral mRNA (3.6 kb mRNA) following treatment of human hepatoblastoma cell line (2.2.15 cells) with the compound; format: functional
HepG2 [9] = assay: Relative level of HBV viral DNA (Intracellular) following treatment of human hepatoblastoma cell line (2.2.15 cells) with the compound; format: functional
HepG2 [10] = assay: Relative level of HBV viral mRNA (2.1 kb mRNA) following treatment of human hepatoblastoma cell line (2.2.15 cells) with the compound; format: functional
HepG2 [11] = assay: Relative level of HBV viral antigen (HBcAg) following treatment of human hepatoblastoma cell line (2.2.15 cells) with the compound; format: functional

EC50 (HepG2 [1]) [µM] | EC90 (HepG2 [3]) [µM] | Compound | IC50 (HepG2 [2]) [µM] | Ratio [4] | Relative level (HepG2 [5]) | Relative level (HepG2 [6]) | Relative level (HepG2 [7]) | Relative level (HepG2 [8]) | Relative level (HepG2 [9]) | Relative level (HepG2 [10]) | Relative level (HepG2 [11])
0.19 | 0.92 | Nc1nc(O)c2ncn(CCC(CO)CO)c2n1 [PENCICLOVIR] | 433 | 471 |  |  |  |  |  |  | 
0.038 | 0.16 | Nc1ccn([C@@H]2CS[C@H](CO)O2)c(=O)n1 [LAMIVUDINE] | 1790 | 11200 |  |  |  |  |  |  | 
0.25 | 2.2 | O=c1cc(-c2ccc(O)c(-c3c(O)cc4oc(-c5ccc(O)cc5)cc(=O)c4c3O)c2)oc2cc(O)cc(O)c12 [ROBUSTAFLAVONE] | 337 | 153 | 97 | 86 | 1 | 93 | 5 | 106 | 138
1.4 | 8.4 | Nc1ccn([C@H]2CC[C@@H](CO)O2)c(=O)n1 [ZALCITABINE] | 252 | 30 | 90 | 88 | 1 | 94 | 6 | 87 | 91
